Reference: US8791102B2, “Acetanilide sphingosine-1-phosphate receptor antagonists” (Exelixis, Inc., priority 2008, dated 2014)

Each compound was assayed against T1, human S1P1 receptors (Homo sapiens, UniProt P21453) (assay: S1P1R antagonist assay (fluorescent membrane potential dye, cAMP readout)). Details: HEK293 cells expressing human S1P1 receptors and CNG channel; 500 nM NECA; S1P1R agonist 10 nM; 90 minutes; read-out: EC50 or IC50 value.
T1 construct: host or cells: HEK293
Assay type: cell-based

T1 sequence (P21453 whole entry): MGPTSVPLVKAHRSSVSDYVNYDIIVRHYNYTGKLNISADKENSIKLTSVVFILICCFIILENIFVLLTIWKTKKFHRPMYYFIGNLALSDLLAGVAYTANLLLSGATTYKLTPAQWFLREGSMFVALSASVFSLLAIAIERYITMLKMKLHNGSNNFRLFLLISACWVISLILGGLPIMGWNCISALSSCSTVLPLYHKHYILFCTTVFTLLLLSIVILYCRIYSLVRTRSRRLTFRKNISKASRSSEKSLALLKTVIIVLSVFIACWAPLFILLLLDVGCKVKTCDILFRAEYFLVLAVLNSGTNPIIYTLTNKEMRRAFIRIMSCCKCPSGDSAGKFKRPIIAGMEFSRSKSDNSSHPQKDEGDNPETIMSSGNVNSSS

Question: For `O=C(CCc1cccnc1)NC(COCc1ccccc1)C(=O)Nc1ccc(Oc2ccccc2)cc1` (stereo not shown) [Compound 369, N-(2-oxo-1-{[(phenylmethyl)oxy]methyl}-2-{[4-(phenyloxy)phenyl]amino}ethyl)-3-(pyridin-3-yl)propanamide], which IC50 is on record?
Answer: > 1000 nM

Question: `O=C(COc1ccc(Cl)c(Cl)c1)NC(COCc1ccccc1)C(=O)Nc1ccc(Oc2ccccc2)cc1` (stereo not shown) [Compound 370, N-(2-oxo-1-{[(phenylmethyl)oxy]methyl}-2-{[4-(phenyloxy)phenyl]amino}ethyl)-2-(3,4-dichlorophenoxy)acetamide] was tested. Which IC50 did it give?
Answer: 300 to 1000 nM

Question: How did the IC50 turn out when `O=C(COc1cccc2ccccc12)NC(COCc1ccccc1)C(=O)Nc1ccc(Oc2ccccc2)cc1` (stereo not shown) [Compound 371, N-(2-oxo-1-{[(phenylmethyl)oxy]methyl}-2-{[4-(phenyloxy)phenyl]amino}ethyl)-2-(naphthalen-1-yloxy)acetamide] was run?
Answer: > 1000 nM

Question: `Cc1ccc(CC(=O)NC(COCc2ccccc2)C(=O)Nc2ccc(Oc3ccccc3)cc2)cc1` (stereo not shown) [Compound 372, N-(2-oxo-1-{[(phenylmethyl)oxy]methyl}-2-{[4-(phenyloxy)phenyl]amino}ethyl)-2-p-tolylacetamide] was tested. Which IC50 did it give?
Answer: > 1000 nM

Question: For `Cc1ccc(C)c(CC(=O)NC(COCc2ccccc2)C(=O)Nc2ccc(Oc3ccccc3)cc2)c1` (stereo not shown) [Compound 373, N-(2-oxo-1-{[(phenylmethyl)oxy]methyl}-2-{[4-(phenyloxy)phenyl]amino}ethyl)-2-(2,5-dimethylphenyl)acetamide], which IC50 is on record?
Answer: > 1000 nM

Question: With `O=C(CSCc1ccccc1)NC(COCc1ccccc1)C(=O)Nc1ccc(Oc2ccccc2)cc1` (stereo not shown) [Compound 374, N-(2-oxo-1-{[(phenylmethyl)oxy]methyl}-2-{[4-(phenyloxy)phenyl]amino}ethyl)-2-(benzylthio)acetamide] as the compound, how does the IC50 read?
Answer: > 1000 nM

Question: For `O=C(Cc1cccc2ccccc12)NC(COCc1ccccc1)C(=O)Nc1ccc(Oc2ccccc2)cc1` (stereo not shown) [Compound 375, N-(2-oxo-1-{[(phenylmethyl)oxy]methyl}-2-{[4-(phenyloxy)phenyl]amino}ethyl)-2-(naphthalen-1-yl)acetamide], which IC50 is on record?
Answer: > 1000 nM

Question: Which IC50 does the source give for `CCOCCC(=O)NC(COCc1ccccc1)C(=O)Nc1ccc(Oc2ccccc2)cc1` (stereo not shown) [Compound 376, N-(2-oxo-1-{[(phenylmethyl)oxy]methyl}-2-{[4-(phenyloxy)phenyl]amino}ethyl)-3-ethoxypropanamide] here?
Answer: > 1000 nM

Question: `O=C(Cc1cccc(Cl)c1)NC(COCc1ccccc1)C(=O)Nc1ccc(Oc2ccccc2)cc1` (stereo not shown) [Compound 377, N-(2-oxo-1-{[(phenylmethyl)oxy]methyl}-2-{[4-(phenyloxy)phenyl]amino}ethyl)-2-(3-chlorophenyl)acetamide] was tested. Which IC50 did it give?
Answer: 300 to 1000 nM

Question: Which IC50 does the source give for `CCCCc1ccc(C(=O)NC(COCc2ccccc2)C(=O)Nc2ccc(Oc3ccccc3)cc2)nc1` (stereo not shown) [Compound 378, 5-butyl-N-(2-oxo-1-{[(phenylmethyl)oxy]methyl}-2-{[4-(phenyloxy)phenyl]amino}ethyl)pyridine-2-carboxamide] here?
Answer: 300 to 1000 nM

Question: For `Cc1cc(C(=O)NC(COCc2ccccc2)C(=O)Nc2ccc(Oc3ccccc3)cc2)ccc1Cl` (stereo not shown) [Compound 379, 4-chloro-3-methyl-N-(2-oxo-1-{[(phenylmethyl)oxy]methyl}-2-{[4-(phenyloxy)phenyl]amino}ethyl)benzamide], which IC50 is on record?
Answer: > 1000 nM

Question: Which IC50 does the source give for `N#Cc1ccc(C(=O)NC(COCc2ccccc2)C(=O)Nc2ccc(Oc3ccccc3)cc2)cc1` (stereo not shown) [Compound 380, 4-cyano-N-(2-oxo-1-{[(phenylmethyl)oxy]methyl}-2-{[4-(phenyloxy)phenyl]amino}ethyl)benzamide] here?
Answer: > 1000 nM

Question: Which IC50 does the source give for `CO[C@H](C(=O)NC(COCc1ccccc1)C(=O)Nc1ccc(Oc2ccccc2)cc1)c1ccccc1` (stereo partly drawn) [Compound 381, N-(2-oxo-1-{[(phenylmethyl)oxy]methyl}-2-{[4-(phenyloxy)phenyl]amino}ethyl)-2S-methoxy-2-phenylacetamide] here?
Answer: > 1000 nM

Question: Which IC50 does the source give for `COc1ccc(OC)c(CCC(=O)NC(COCc2ccccc2)C(=O)Nc2ccc(Oc3ccccc3)cc2)c1` (stereo not shown) [Compound 382, N-(2-oxo-1-{[(phenylmethyl)oxy]methyl}-2-{[4-(phenyloxy)phenyl]amino}ethyl)-3-(2,5-dimethoxyphenyl)propanamide] here?
Answer: > 1000 nM

Question: `O=C(CCc1c[nH]c2ccccc12)NC(COCc1ccccc1)C(=O)Nc1ccc(Oc2ccccc2)cc1` (stereo not shown) [Compound 383, N-(2-oxo-1-{[(phenylmethyl)oxy]methyl}-2-{[4-(phenyloxy)phenyl]amino}ethyl)-3-(1H-indol-3-yl)propanamide] was tested. Which IC50 did it give?
Answer: > 1000 nM

Question: With `O=C(Cc1cccc(Br)c1)NC(COCc1ccccc1)C(=O)Nc1ccc(Oc2ccccc2)cc1` (stereo not shown) [Compound 384, N-(2-oxo-1-{[(phenylmethyl)oxy]methyl}-2-{[4-(phenyloxy)phenyl]amino}ethyl)-2-(3-bromophenyl)acetamide] as the compound, how does the IC50 read?
Answer: > 1000 nM

Question: For `CCC(C)CC(=O)NC(COCc1ccccc1)C(=O)Nc1ccc(Oc2ccccc2)cc1` (stereo not shown) [Compound 385, 3-methyl-N-(2-oxo-1-{[(phenylmethyl)oxy]methyl}-2-{[4-(phenyloxy)phenyl]amino}ethyl)pentanamide], which IC50 is on record?
Answer: > 1000 nM

Question: For `O=C(NC(COCc1ccccc1)C(=O)Nc1ccc(Oc2ccccc2)cc1)c1cc2ccccc2[nH]1` (stereo not shown) [Compound 386, N-(2-oxo-1-{[(phenylmethyl)oxy]methyl}-2-{[4-(phenyloxy)phenyl]amino}ethyl)-1H-indole-2-carboxamide], which IC50 is on record?
Answer: > 1000 nM

Question: For `O=C(NC(COCc1ccccc1)C(=O)Nc1ccc(Oc2ccccc2)cc1)c1ccc(Cl)cc1F` (stereo not shown) [Compound 387, 4-chloro-2-fluoro-N-(2-oxo-1-{[(phenylmethyl)oxy]methyl}-2-{[4-(phenyloxy)phenyl]amino}ethyl)benzamide], which IC50 is on record?
Answer: > 1000 nM

Question: With `CC(=O)OCC(=O)NC(COCc1ccccc1)C(=O)Nc1ccc(Oc2ccccc2)cc1` (stereo not shown) [Compound 388, 2-oxo-2-[(2-oxo-1-{[(phenylmethyl)oxy]methyl}-2-{[4-(phenyloxy)phenyl]amino}ethyl)amino]ethyl acetate] as the compound, how does the IC50 read?
Answer: > 1000 nM

Question: For `O=C(NC(COCc1ccccc1)C(=O)Nc1ccc(Oc2ccccc2)cc1)c1ccsc1` (stereo not shown) [Compound 389, N-(2-oxo-1-{[(phenylmethyl)oxy]methyl}-2-{[4-(phenyloxy)phenyl]amino}ethyl)thiophene-3-carboxamide], which IC50 is on record?
Answer: 300 to 1000 nM

Question: `O=C(Cc1ccc(Br)cc1)NC(COCc1ccccc1)C(=O)Nc1ccc(Oc2ccccc2)cc1` (stereo not shown) [Compound 390, N-(2-oxo-1-{[(phenylmethyl)oxy]methyl}-2-{[4-(phenyloxy)phenyl]amino}ethyl)-2-(4-bromophenyl)acetamide] was tested. Which IC50 did it give?
Answer: > 1000 nM

Question: How did the IC50 turn out when `O=C(Cc1ccccc1Cl)NC(COCc1ccccc1)C(=O)Nc1ccc(Oc2ccccc2)cc1` (stereo not shown) [Compound 391, N-(2-oxo-1-{[(phenylmethyl)oxy]methyl}-2-{[4-(phenyloxy)phenyl]amino}ethyl)-2-(2-chlorophenyl)acetamide] was run?
Answer: > 1000 nM

Question: How did the IC50 turn out when `COc1cc(CC(=O)NC(COCc2ccccc2)C(=O)Nc2ccc(Oc3ccccc3)cc2)cc(OC)c1OC` (stereo not shown) [Compound 392, N-(2-oxo-1-{[(phenylmethyl)oxy]methyl}-2-{[4-(phenyloxy)phenyl]amino}ethyl)-2-(3,4,5-trimethoxyphenyl)acetamide] was run?
Answer: 300 to 1000 nM

Question: Which IC50 does the source give for `Cc1ccc(OCC(=O)NC(COCc2ccccc2)C(=O)Nc2ccc(Oc3ccccc3)cc2)cc1` (stereo not shown) [Compound 393, N-(2-oxo-1-{[(phenylmethyl)oxy]methyl}-2-{[4-(phenyloxy)phenyl]amino}ethyl)-2-(p-tolyloxy)acetamide] here?
Answer: > 1000 nM
